Measured values: patent US20100305071A1, “METHODS FOR IMPROVING HEALING OF AN ORAL LESION USING A GLYCEROPHOSPHATE SALT” (PRELIEF INC., priority 2007, published 2010)
“Also recorded” adds a separate entry of the source.

How the values were obtained:
[1] = tested on: rhino mucosal passage inflammation; experiment: Observation of low concentrations of CGP on rhino mucosal passage inflammation; type: in vivo; settings: CGP between 1% and 2% by weight
[2] = tested on: gum wounds after tooth extraction (oral lesion); experiment: CGP powder applied to the gum wound after tooth extraction (single human subject); type: in vivo
Procedure: A tooth was removed from a human, subject and normal packing was applied. There were five (5) stitches put in. Approximately 2 hours after the extraction, the human subject lightly rinsed their mouth and applied powdered CGP granulate of approximately 150 micron size granules directly to the gum and allowed the powder to become wet. Sufficient CGP powder was applied to form a light plaster coating over the wound. This was repeated approximately 6 hours later, before retiring that night, and again the next morning. In all cases, the CGP remained intact and in a cohesive mass on the gum for 15 minutes or more, after which time it slowly dissolved or dispersed and was safely swallowed. At no time during the post-extraction period was there swelling or pain. […] Rapid healing of the gum wounds was observed by a periodontist at the normal stitch-removal visit, 7 days subsequent to tooth removal. The gums had fully closed and were normal pink color in about one week. The periodontist commented that in their 15 years of practice, they had never seen this quality of healing at this speed.

[3] = tested on: wounds post implant placement (oral lesion); experiment: Mucosal soft tissue healing in patients post implant placement applying dry CGP (PerioCell), small uncontrolled study; type: in vivo, human
Procedure: Methods according to embodiments of the present invention have been applied to multiple patients post implant placement. The age range of implant patients was 30-65 years. All patients had wound closure with 4-0 silk suture with interrupted knots unless otherwise noted. The patients were instructed to apply dry CGP that has less than 5% moisture in 150 micron granulate (PerioCell™, AkPharma Inc., Pleasantville, N.J. 08232) to the wounds three times daily, approximately 4 hours apart, for the first three days succeeding surgery. Mucosal soft tissue healing was observed and studied in these patients. Patient's compliance with the use instructions for CGP was reported by the patient at the post-operational visit (post-op) and was rated as Excellent, Good, Fair or Poor. In most, but not all cases, patients were reasonably compliant.

For calcium glycerophosphate [CGP], the “effect on apparent rhino mucosal passage inflammation” value [1] was “favorably affect”, the “healing of the gum wounds observed by periodontist at stitch-removal visit” value ([2]; 7 days subsequent to tooth removal) was “Rapid healing” and the “swelling or pain during the post-extraction period” value ([2]; CGP applied about 2 h and 8 h after extraction and next morning) was “At no time”. For the same substance, the “time until gums were normal pink color (self-observation via mirror)” value ([2]; after the extraction) was 36 to 48 h, the “correlation between good and excellent compliance with use instructions for CGP and little to no tissue gapping and good wound healing” value ([3]; all implant patients) was “definite correlation” and the “erythema at the wound margin at first post-op visit” value ([3]; one week post-op (2 weeks for patient 018), one patient per block) was “very little erythema or edema; also recorded: very little gingival erythema; also recorded: localized mild erythema; also recorded: little to no marginal erythema; also recorded: almost no erythema; also recorded: mild mesial inflammation; also recorded: Mild left side erythema and more moderate right side marginal erythema; also recorded: Mild to moderate marginal erythema”. For the same substance, the “wound closure / tissue approximation at first post-op visit, noted by periodontist” value ([3]; one week post-op (2 weeks for patient 018), one patient per block, CGP three times daily for first three days, compliance varies by patient) was “excellent tissue approximation; also recorded: good tissue approximation; also recorded: beautiful wound approximation; also recorded: perfect wound margin approximation; also recorded: moderate tissue gaps in the left side; also recorded: wound margins came together very well with no gaps; also recorded: greater than 50% gapping of the margins; also recorded: great wound approximation with no gaps; also recorded: great wound approximation; also recorded: slight tissue gap at the mesial aspect; also recorded: no gaps seen; also recorded: excellent wound approximation and perfect closure; also recorded: great heal; also recorded: Wound closure was better in the mandible than in the maxilla; also recorded: Wound closure looked great with no gaps; also recorded: moderate gap at wound margin; also recorded: mild gap at the wound margin; also recorded: good wound approximation; also recorded: better healing on the left side than on the right; also recorded: slight gap at the wound margin; also recorded: rolled wound borders with slight gapping across” and the “healing / closure at later post-op visit” value ([3]; three weeks to one month post-op, one patient per block) was “completely healed; also recorded: complete heal; also recorded: healing was complete; also recorded: things looked better; also recorded: perfectly closed wound; also recorded: implant was removed; also recorded: perfect tissue approximation; also recorded: perfect wound approximation; also recorded: excellent healing; also recorded: perfect closure; also recorded: good approximation; also recorded: all looked great; also recorded: complete closure; also recorded: good closure; also recorded: wound margin looked good; also recorded: wound margins were completely approximated; also recorded: excellent heal; also recorded: perfect heal on the left side”.
